Measured values taken from patent US20120035187A1 (priority 2009, published 2012).

Columns and labels:
[1] = system: primary neuron (neuron, astrocyte and microglia) prepared from brain cortex of a rat fetus; assay: Amyloid β fragment disorder in primary neuron; assay type: cell-based; settings: concrete data not shown
Description: Though concrete data is not shown, using primary neuron (neuron, astrocyte and microglia) prepared from brain cortex of a rat fetus in place of PC12-HS cells, the influence of NK-4, NK-26, NK-234, NK-19 and NK-150 on amyloid β fragment disorder and hydrogen peroxide disorder was investigated.

[2] = Hydroxyl radical-scavenging activity, ESR (Fenton reaction)
Protocol: Stock solutions, prepared by dissolving NK-4, NK-19, NK-53, NK-100, and NK-557 in DMSO, were respectively diluted with refined water to give concentrations of 3-folds higher than those in Table 14 and used as test sample solutions. As a positive control, a neuroprotectant, “edaravone”, commercialized as “RADICUT®” containing 3-methyl-1-phenyl-2-pyrazoline-5-one as an effective ingredient by Mitsubishi Tanabe Pharma Corporation, Osaka, Japan, was diluted with refined water to give a concentration of 3-folds higher than that in Table 14 for use. To 50 μl of refined water, 50 μl of 89 mM DMPO ([…]) commercialized by Dojindo Laboratories, Kumamoto, Japan, 50 μl of the test sample solution, and 50 μl of an aqueous solution containing 1 mM hydrogen peroxide, 1 mM FeSO4, and 1 mM DTPA, commercialized by Wako Pure Chemical Industries, Osaka, Japan, were added, mixed for 10 seconds using a vortex mixer and allowed to react in an incubator controlled at 37° for 40 seconds. After 30 seconds from completion of the reaction, the resulting reaction mixture was subjected to ESR measurement. A control solution was prepared by the same method as above except for using 50 μl of a diluted edaravone solution as a substitute for the test sample solution, and subjected to ESR measurement.
The reaction mixture for measuring hydroxyl or peroxyl radicals was poured into a flat quartz cell for ESR, set to “FREE RADICAL MONITOR JES-FR30”, an ESR apparatus commercialized by JOEL Ltd., Tokyo, Japan, and ESR was measured according to manual manner. The residual ratio of peroxyl radical (%) was determined as a relative value by defining the ESR value, obtained by using 0.1 M phosphate buffer as a substitute of the test sample solution, as 100. The results are in Tables 14 and 15. […] Therefore, the IC50 of edaravone was determined by another test using its higher concentration, and the result is also shown in Table 14. The conditions of the ESR measurement were set as follows: […]

brain ischemia rat = assay: Brain ischemia (cerebral infarction model) rat: behavioral score; assay type: in vivo; design: Behavioral score: scale not given here; settings: for behavioral score (in words): Experiment 13, cerebral-infarction-model rat, administered through caudal vein
Protocol: Male SD rats, seven- to eight-weeks of age and 280 to 330 g body weight, commercialized by Charles River Laboratories Japan Inc., Kanagawa, Japan, were allocated randomly into seven groups, consisting of five to seven rats in each group. Among the seven groups, five groups were subjected to the following surgery as test groups: Rats in the test groups were subcutaneously administered with 0.3 mg/kg body weight of atropine, commercialized by Fuso Pharmaceutical industries, Osaka, Japan. Successively, each rat was anesthetized by administrating 600 mg/kg body weight of urethane, commercialized by Sigma-Aldrich Co., MO, USA, and 60 mg/kg-weight of […], commercialized by Sigma-Aldrich Co., MO, USA, into the peritoneal cavity, and fixed to a fixator under voluntary breathing conditions. The right carotid artery bifurcation was exposed by median incision of the neck without damaging vagus nerve. The common carotid artery and external carotid artery around the right carotid artery bifurcation were exfoliated from surrounding connective tissue and wired respectively using “NESCOSUTURE”, a 6-0 nylon string commercialized by Alfresa Pharma Corporation, Osaka, Japan. Then, the internal carotid artery was tied with the 6-0 nylon string for fixation after insertion of an obturator. Successively, the common carotid artery was incised and a silicon-coated obturator, prepared by a 4-0 nylon string, commercialized by Doccol Corp., CA, USA, was inserted from the common carotid artery into the internal carotid artery at a distance of about 16 mm, and clipped to the common carotid artery (see, for example, Koizumi et al., Cerebral stroke, Vol. 8, No. 1, pp. 1-8 (1986)). By the method, the silicon-coated tip of obturator was inserted through the right carotid artery bifurcation to frontal cerebral artery at a distance of about 2 mm and obstructs the inlet of the medial cerebral artery. After two hours occlusion of the medial cerebral artery while keeping the rat on an isothermal pad controlled at a temperature of 37° C., blood was allowed to reperfuse by withdrawing the obturator. Then, the internal carotid artery was tied near the carotid artery bifurcation for preventing the bleeding from the incised part of the common carotid artery. In the model, the blood was reperfused through the left carotid artery, vertebral artery, basilar artery, frontal and backward communication artery because the right carotid artery was clipped.
NK-4, NK-19, NK-53, NK-100, and NK-557, used in the test, were respectively dissolved in DMSO (product No. “D8418”, commercialized by Sigma-Aldrich Co., MO, USA) to give a concentration of 5 mg/ml and filtrated using “MILLEX-LG SLLG025SS”, a DMSO-resistant membrane filter commercialized by Millipore, MA, USA. Stock […], and then 4 ml/kg body weight of any of the resulting diluted solutions was administered ([…]) to five test groups (test groups 1 to 5) consisting of five or seven rats, through their caudal veins at both after one hour from the occlusion of middle cerebral artery and immediately after initiating reperfusion. After 24 hours from the reperfusion of blood, behavioral and histological evaluations of rats were carried out according to the following procedures: As a control group 1, five rats in one group out of the remaining two groups were subjected to the same surgery as the rats in the test groups 1 to 5, and administered with 4 ml/kg body weight of PBS free of any of the compounds through their caudal veins at both after one hour of the medial cerebral artery occlusion and immediately after the start of reperfusion. As the control group 2, six rats in the remaining one group were subjected to a sham surgery, in which common, external, and internal carotid arteries were clipped and then reperfused their blood without inserting the obturator to each medial cerebral artery. […]

[3] = concentration of compound 2.5 μg/ml
[4] = concentration of compound 3.13 μg/ml
[5] = concentration of compound 6.25 μg/ml
[6] = concentration of compound 12.5 μg/ml
[7] = brain ischemia rats (embolus, 2 h occlusion, reperfusion), 100 p g/kg body weight via caudal vein 1 h after occlusion and at reperfusion, 24 hours after reperfusion, maximum score 6
[8] = embolus rat, dose 100 μg per kg body weight, caudal vein

Structure (SMILES) | suppressing amyloid β fragment disorder [1] | IC50 (μg/ml) of hydroxyl radical-scavenging activity [2] | Residual ratio of hydroxyl radical (%) [2, 3] | Residual ratio of hydroxyl radical (%) [2, 4] | Residual ratio of hydroxyl radical (%) [2, 5] | Residual ratio of hydroxyl radical (%) [2, 6] | behavioral score (in words) (brain ischemia rat) | Behavioral score (brain ischemia rat; [7]) | Behavioral score (brain ischemia rat; embolus rat, dose 25 μg per kg body weight, caudal vein) | Behavioral score (brain ischemia rat; embolus rat, dose 50 μg per kg body weight, caudal vein) | Behavioral score (brain ischemia rat; [8]) | Behavioral score (brain ischemia rat; embolus rat, dose 200 μg per kg body weight, caudal vein) | Behavioral score (brain ischemia rat; embolus rat, dose 300 μg per kg body weight, caudal vein) | Behavioral score (brain ischemia rat; embolus rat, dose 1 μg per kg body weight, caudal vein) | Behavioral score (brain ischemia rat; embolus rat, dose 10 μg per kg body weight, caudal vein)
CCN1C=CC(=CC=C(C=Cc2cc[n+](CC)c3ccccc23)c2cc[n+](CC)c3ccccc23)c2ccccc21.[I-].[I-] [NK-4] | actions of suppressing | 6.7 µg/mL | 15 ± 1 % | 67 ± 1 % | 49 ± 2 % | 26 ± 1 % | significantly improved | 2.9 ± 0.2 | 4.5 ± 0.6 | 3.3 ± 0.4 | 2.6 ± 0.2 | 3.7 ± 0.4 | 4.2 ± 0.5 | – | –
CCCCN1C=C/C(=C/C=C(/C=C/c2cc[n+](CCCC)c3ccccc23)c2cc[n+](CCCC)c3ccccc23)c2ccccc21 [NK-26] | actions of suppressing | – | – | – | – | – | significantly improved | – | – | – | 4.3 ± 0.4 | – | – | 4.4 ± 0.4 | 3.44 ± 0.6
CCN1/C(=C/C=C(/C=C/c2sc3ccccc3[n+]2CC)c2sc3ccccc3[n+]2CC)Sc2ccccc21.[I-].[I-] [NK-100] | – | 6.6 µg/mL | 8 ± 0 % | 68 ± 1 % | 51 ± 1 % | 32 ± 1 % | – | 2.4 ± 0.2 | – | – | – | – | – | – | –
CCCN1C=CC(=CC=C(C=Cc2cc[n+](CCC)c3ccccc23)c2cc[n+](CCC)c3ccccc23)c2ccccc21.[I-].[I-] [NK-234] | actions of suppressing | – | – | – | – | – | – | – | – | – | – | – | – | – | –
CC[n+]1ccccc1/C=C/c1ccc(N(C)C)cc1 [NK-557] | – | 6.2 µg/mL | 15 ± 6 % | 71 ± 1 % | 50 ± 1 % | 30 ± 1 % | – | 2.9 ± 0.3 | – | – | – | – | – | – | –
